Data from patent US20250313563A1, “GLYCOGEN SYNTHASE KINASE 3 INHIBITORS AND USES THEREOF” (The Broad Institute, Inc., priority 2022, published 2025).
Like-named read-outs stand apart in the source and are kept apart here.

Legend:
[1] = biological target: GSK3α (GST-full length GSK3α) (Homo sapiens (Human), UniProt P49840); assay: GSK3α TR-FRET kinase assay; format: biochemical; conditions: IC50
In short: (§1)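 IC50s came from the normalized 665/615 TR-FRET ratio after Tb-anti-pSer641 antibody and streptavidin-d2 detection of phosphorylated biotin-glycogen synthase peptide (200 nM). ATP was 4 μM for GSK3α, 2 μM for GSK3b, or 1 mM; 1 nM enzyme, 100 min, ambient, pH 7.5, after 30-min compound preincubation.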

[2] = biological target: GSK3b (GST-full length GSK3b) (Homo sapiens (Human), UniProt P49841); assay: GSK3b TR-FRET kinase assay; format: biochemical; conditions: IC50
GSK3b (GST-full length GSK3b), sequence (P49841 whole entry): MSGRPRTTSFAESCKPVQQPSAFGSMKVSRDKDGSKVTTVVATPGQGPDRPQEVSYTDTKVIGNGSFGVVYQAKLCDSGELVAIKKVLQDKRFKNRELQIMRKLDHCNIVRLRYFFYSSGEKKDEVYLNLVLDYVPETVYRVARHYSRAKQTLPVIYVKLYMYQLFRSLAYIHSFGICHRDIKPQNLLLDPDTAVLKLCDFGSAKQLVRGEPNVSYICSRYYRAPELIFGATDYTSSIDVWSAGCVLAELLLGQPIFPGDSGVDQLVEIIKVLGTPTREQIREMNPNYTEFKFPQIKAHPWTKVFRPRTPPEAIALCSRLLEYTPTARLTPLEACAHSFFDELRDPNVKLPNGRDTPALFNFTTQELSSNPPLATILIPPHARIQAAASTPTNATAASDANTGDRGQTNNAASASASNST
In short: as §1

[3] = system: MDR1-MDCK cell monolayers; assay: MDR1/MDCK assay (blood-brain barrier penetration potential); format: in vitro ADME; conditions: 5 μM, pH 7.4, 120 minutes; for MDCK permeability (MDR1-MDCK); Mean; Papp (A − B): A to B; for MDCK permeability (MDR1-MDCK); Mean; Papp (B − A): B to A
Protocol: The MDR1/MDCK assay is run at Absorption Systems. This assay is used to determine the blood-brain barrier (BBB) penetration potential of a test compound using MDR1-MDCK cell monolayers. Catalog number EA203.
• Test compound at 5 μM in HBSSg with maximum DMSO concentration not greater than 1%.
• Confluent monolayers of MDR1-MDCK cells, 7 to 11 days old.
• Receiver well with 1% BSA in modified Hanks buffer (HBSSg) • Apical and basolateral side at pH 7.4 • Dose two monolayers in each direction (N=2) • Dose apical side for (A to B) assessment • Dose basolateral side for (B to A) assessment • Sample both apical and basolateral sides at 120 minutes • Determine the concentrations of test compound using a generic LC-MS/MS method with a minimum 4 point calibration curve.
• The quality of the cell monolayer batch is verified using control compounds before monolayers are released for use • The quality of each monolayer used in the assay is verified by a TEER measurement and by calculating the Papp for a control compound.

[4] = read-out: GSK3-A (TR-FRET 1 mM ATP), GMean, 1 mM ATP, geometric mean
[5] = read-out: GSK3-B (TR-FRET 1 mM ATP), GMean, 1 mM ATP, geometric mean
[6] = 1 nM GSK3α, 4 μM ATP, 30 minute preincubation, Table 16, read-out: GSK3-A TR-FRET BIOCHEMICAL (TR-FRET)
[7] = 1 nM GSK3b, 2 μM ATP, 30 minute preincubation, Table 16, read-out: GSK3-B TR-FRET BIOCHEMICAL (TR-FRET)

GSK3α (GST-full length GSK3α), sequence (P49840 whole entry): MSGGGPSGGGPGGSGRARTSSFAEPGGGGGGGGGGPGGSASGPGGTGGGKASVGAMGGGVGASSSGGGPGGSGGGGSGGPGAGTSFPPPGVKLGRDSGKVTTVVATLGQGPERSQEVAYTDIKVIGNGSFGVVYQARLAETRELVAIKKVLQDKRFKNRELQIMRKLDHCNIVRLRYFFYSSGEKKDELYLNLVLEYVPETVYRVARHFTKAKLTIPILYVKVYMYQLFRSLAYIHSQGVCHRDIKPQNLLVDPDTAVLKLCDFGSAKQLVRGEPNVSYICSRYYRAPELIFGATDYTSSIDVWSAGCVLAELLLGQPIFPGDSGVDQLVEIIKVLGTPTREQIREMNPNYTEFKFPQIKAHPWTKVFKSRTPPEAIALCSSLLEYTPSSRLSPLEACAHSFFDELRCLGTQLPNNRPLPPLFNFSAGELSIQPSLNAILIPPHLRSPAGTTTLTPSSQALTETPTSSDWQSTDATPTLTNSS

SMILES | IC50 [1, 4] [nM] | IC50 [2, 5] [nM] | MDCK permeability (MDR1-MDCK); Mean; Papp Ratio (B − A/A − B) (efflux ratio) [3] | MDCK permeability (MDR1-MDCK); Mean; Papp (A − B) [3] | MDCK permeability (MDR1-MDCK); Mean; Papp (B − A) [3] | IC50 [1, 6] [nM] | IC50 [2, 7] [nM]
CN(C)S(=O)(=O)c1cccc(C2(C)C3=C(CC(C)(C)CC3=O)Nc3n[nH]c(CC(C)(C)C)c32)c1 (stereo not drawn) [Compound 126012] | 1000 to 5000 | 100 to 1000 | 120 | 0.47 10^−6 cm/s | 56.2 10^−6 cm/s | – | –
Cn1cncc1-c1cccc(C2(C)C3=C(CC(C)(C)CC3=O)Nc3n[nH]c(CC(C)(C)C)c32)c1 (stereo not drawn) [Compound 126014] | 100 to 1000 | 100 to 1000 | 187 | 0.17 10^−6 cm/s | 32.1 10^−6 cm/s | – | –
C[S+]([O-])c1cccc(C2(C)C3=C(CC(C)(C)CC3=O)Nc3n[nH]c(CC(C)(C)C)c32)c1 (stereo not drawn) [Compound 126190] | 1000 to 5000 | 100 to 1000 | 199 | 0.08 10^−6 cm/s | 15.7 10^−6 cm/s | – | –
Cn1cc(-c2cccc(C3(C)C4=C(CC(C)(C)CC4=O)Nc4n[nH]c(CC(C)(C)C)c43)c2)cn1 (stereo not drawn) [Compound 126393] | 1000 to 5000 | 100 to 1000 | 92.5 | 0.59 10^−6 cm/s | 54.5 10^−6 cm/s | – | –
CCC1(c2cccc(-c3ccnc4c3CCC4)c2)C2=C(CC(C)(C)C2=O)Nc2n[nH]cc21 (stereo not drawn) [Compound 952557] | – | – | – | – | – | ≤ 100 | 100 to 1000
CCc1cc(-c2cccc([C@@]3(CC)C4=C(CC(C)(C)NC4=O)Nc4n[nH]cc43)c2)n(C)n1 [Compound 952561] | – | – | – | – | – | 100 to 1000 | 100 to 1000
CC[C@]1(c2cccc(-c3c(F)cncc3OC)c2)C2=C(CC(C)(C)C2=O)Nc2n[nH]cc21 [Compound 952562] | – | – | – | – | – | 1000 to 5000 | > 5000
CC[C@]1(c2cccc(-c3cc(C)nc4c3cnn4C)c2)C2=C(CC(C)(C)NC2=O)Nc2n[nH]cc21 [Compound 952563] | – | – | – | – | – | 1000 to 5000 | > 5000
CC[C@@]1(c2cccc(-c3c(F)cncc3OC)c2)C2=C(CC(C)(C)C2=O)Nc2n[nH]cc21 [Compound 952564] | 100 to 1000 | 1000 to 5000 | – | – | – | ≤ 100 | ≤ 100
CC[C@]1(c2cccc(-c3cnn4ccncc34)c2)C2=C(CC(C)(C)NC2=O)Nc2n[nH]cc21 [Compound 952565] | 1000 to 5000 | > 5000 | – | – | – | ≤ 100 | 100 to 1000
CCC1(c2cccc(-c3cnn(-c4ccccn4)c3)c2)C2=C(CC(C)(C)NC2=O)Nc2n[nH]cc21 (stereo not drawn) [Compound 952566] | > 5000 | > 5000 | – | – | – | 100 to 1000 | 1000 to 5000
CC[C@@]1(c2cccc(C(F)(F)F)c2)C2=C(CCN(c3ccsc3)C2=O)Nc2n[nH]cc21 [Compound 952630] | – | – | – | – | – | ≤ 100 | 100 to 1000
CC[C@]1(c2cccc(C(F)(F)F)c2)C2=C(CCN(c3ccsc3)C2=O)Nc2n[nH]cc21 [Compound 952636] | – | – | – | – | – | > 5000 | > 5000
CC[C@]1(c2cccc(C(F)(F)F)c2)C2=C(CCN(c3cscn3)C2=O)Nc2n[nH]cc21 [Compound 952638] | – | – | – | – | – | > 5000 | > 5000
CCC1(c2cccc(-c3ccnc4c3CCCC4)c2)C2=C(CC(C)(C)C2=O)Nc2n[nH]cc21 (stereo not drawn) [Compound 952752] | – | – | – | – | – | ≤ 100 | 100 to 1000
CC[C@]1(c2cccc(-c3ccnc(OC)c3Cl)c2)C2=C(CC(C)(C)NC2=O)Nc2n[nH]cc21 [Compound 952754] | – | – | – | – | – | ≤ 100 | 100 to 1000
CC[C@]1(c2cccc(-c3ccncc3C(F)(F)F)c2)C2=C(CC(C)(C)C2=O)Nc2n[nH]cc21 [Compound 952757] | – | – | – | – | – | 1000 to 5000 | > 5000
CC[C@@]1(c2cccc(-c3ccncc3C(F)(F)F)c2)C2=C(CC(C)(C)C2=O)Nc2n[nH]cc21 [Compound 952759] | 100 to 1000 | 1000 to 5000 | – | – | – | ≤ 100 | ≤ 100
CC[C@]1(c2cccc(-c3c(C)cnc4c(C)cccc34)c2)C2=C(CC(C)(C)NC2=O)Nc2n[nH]cc21 [Compound 952760] | – | – | – | – | – | > 5000 | > 5000
CC[C@]1(c2cccc(-c3ccnc4c(C)cccc34)c2)C2=C(CC(C)(C)NC2=O)Nc2n[nH]cc21 [Compound 952909] | – | – | – | – | – | ≤ 100 | 100 to 1000
